# Like-named read-outs stand apart in the source and are kept apart here. Square brackets hold non-standard residues; d marks the D form. Peptide text beside a SMILES is read from it.
# Assays:
# S. aureus [1] = details: 18 h
# [2] = tested on: LPS-stimulated NO production in NR8383 rat macrophage cell line; assay: Endotoxin neutralization assay (Griess nitrite); assay type: cell-based; details: 125 mg L^−1 peptide, 100 ng mL^−1 LPS, 18 h
# Protocol: Untreated cells and cells that were stimulated with LPS alone served as the […] controls, respectively. The amount of NO produced was estimated by quantifying the concentration of the stable NO metabolite nitrite in the isolated supernatant fractions using the Griess reagent (1% sulphanilamide, 0.1% N-1-napthylethylenediamine dihydrochloride, 5% phosphoric acid) according to the manufacturer's protocol. The absorbance was measured at 540 nm and nitrite concentrations were determined using a standard reference curve prepared from known concentrations of NaNO2 solutions.
# in vitro [3] = assay type: cell-based; details: rat, NR8383 macrophage cells
# Protocol: (§1) HeLa, HDF and NR8383 cells were respectively seeded at a densities of 1×10^4, 1×10^4 and 4×10^4 cells per well of a 96-well plate. Following overnight incubation, the cells were treated with 3.9 to 500 mg L^−1 of (IRIK)3-NH2 (SEQ ID NO: 21) and (VRVK)3-NH2 (SEQ ID NO: 20) for 24 h. For the adherent HeLa and HDF cell lines, the incubation media in each well were replaced with 100 μL of growth media and 10 μL of MTT solution (5 mg·ml^−1 in PBS). The cells were further incubated for 4 h at 37° C. according to the manufacturer's directions. Resultant formazan crystals formed in each well were solubilized using 150 μL of DMSO upon removal of growth media. A 100 μL aliquot from each well was then transferred to a new 96-well plate for determination of absorbance using a microplate spectrophotometer at wavelengths of 550 nm and 690 nm. Relative cell viability was expressed as [(A550−A690)sample/(A550−A690)control]×100%.
# For the semi-adherent NR8383 cells, 20 μL of […]-BLUE® reagent was added into each well after treatment and the plate was incubated for a further 4 h. The fluorescence intensity readings of the wells were determined at excitation wavelength of 560 nm and emission wavelength of 590 nm using a microplate reader. […]
# in vitro [4] = assay type: cell-based; details: human
# Protocol: as §1
# P. aeruginosa [5] = details: 18 h
# C. albicans [6] = details: 42 h
# E. coli [7] = details: 18 h
# S. epidermidis [8] = details: 18 h
# [9] = tested on: 5 microorganisms tested (S. epidermidis, S. aureus, E. coli, P. aeruginosa, C. albicans); assay: Mean MIC over the panel and selectivity index (Example 1); assay type: cell-based
# Protocol: Red blood cells suspension incubated with PBS was used as negative control.
# E. coli [10] = assay type: cell-based, Escherichia coli; details: end of the experiment (up to 20 passages)
# [11] = tested on: intracellular S. aureus in RAW264.7 mouse macrophages; assay type: cell-based, Staphylococcus aureus; details: intracellular in RAW264.7 mouse macrophages, 8 h
# Protocol: RAW264.7 cells were seeded at a density of 4×10^5 per well of a 12-well plate. Following an overnight incubation, the cells were infected for 1 h with 13.3 μL of processed bacteria (3.0×10^8 CFU mL^−1) to achieve a 10:1 multiplicity of infection. The cells were then rinsed twice with 1×PBS and incubated with 1 mL of fresh media containing 50 μg mL^−1 gentamicin for 45 min to eliminate extracellular bacteria. The media in each well were removed and the infected cells were incubated with fresh media containing 10% (by volume) water or various concentrations of IK8-all D (2, 3.9, 7.8, 15.6 and 31.3 mg L^−1) for up to 4 and 8 h. At the respective time points, the infected cells were trypsinized, rinsed twice with PBS and lyzed with 800 μL of sterile water with incubation at room temperature for 10 min, followed by 5 min sonication. The intracellular bacteria count was determined by plating serially diluted cultures onto LB agar and enumerated after 24 h.
# rabbit red blood cells = assay type: cell-based; details: red cells of rabbit, 1 h
# S. aureus [12] = assay type: cell-based, Staphylococcus aureus; details: passage 20
# [13] = tested on: five microorganisms tested (S. epidermidis, S. aureus, E. coli, P. aeruginosa, C. albicans); assay type: cell-based; details: 18 h
# Protocol: After 18 h treatment of microorganisms with various concentrations of peptide (0.5×MIC, MIC and 2×MIC), the respective samples were subjected to a series of ten-fold dilutions and plated onto LB agar plates. The plates were then incubated overnight and counted for colony-forming units. A sample containing microbes treated with 10% (by volume) water was used as a control. Results are expressed as Log(CFU/mL) and as % Kill=[(cell count of control−survivor count of peptide-treated microbes)/cell count of control]×100.
# [14] = tested on: 5 microorganisms tested (S. epidermidis, S. aureus, E. coli, P. aeruginosa, C. albicans); assay: Mean MIC over the panel and selectivity index (Example 2)
# in vitro [15] = assay type: cell-based; details: mouse, RAW264.7 macrophage cells
# Protocol: RAW264.7 and WI-38 cells were respectively seeded at a density of 1.5×10^4 and 1×10^4 per well of a 96-well plate. Following overnight incubation, the cells were treated with 1.0 to 125 mg L^−1 of IK8-all D for 48 h. Subsequently, the incubation media in each well were replaced with 100 μL of growth media and 10 μL of MTT solution (5 mg·ml^−1 in PBS) and the cells were incubated for 4 h at 37° C. according to the manufacturer's directions. Resultant formazan crystals formed in each well were solubilized using 150 μL of DMSO upon removal of growth media. A 100 μL aliquot from each well was then transferred to a new 96-well plate for determination of absorbance using a microplate spectrophotometer at wavelengths of 550 nm and 690 nm. Relative cell viability was expressed as [(A550−A690)sample/(A550−A690)control]×100%.
# trypsin and proteinase K = assay type: in vitro ADME
# Protocol: One of the major factors limiting the clinical utility of AMPs lies in their instability to rapid degradation by proteases which are present abundantly in biological fluids and/or secreted by microorganisms. In order to evaluate the proteolytic stability of the designed β-sheet forming peptides, the D- and L-isoforms of the n=2 peptide sequence (IK8-all D or IK8-all L, respectively) were treated with the broad spectrum serine proteases, trypsin and proteinase K, for 6 h and evaluated their antimicrobial activities against S. aureus, E. coli and P. aeruginosa. […] The structural integrity of synthetic peptides following treatment with both proteases was also evaluated using MALDI-TOF mass spectroscopy. […] The cleavage sites of both enzymes for the IK8-all L peptide are illustrated in FIG. 19a with the mass spectra peaks assigned to the major fragments.
# C. albicans [16] = tested on: C. albicans
# C. neoformans = assay: MBC against clinical isolates; assay type: cell-based; details: clinical isolate
# [17] = tested on: Methicillin-resistant S. aureus; details: clinical isolate
# [18] = tested on: S. aureus and P. aeruginosa; assay: FE-SEM analysis of treated bacteria (Example 2); assay type: cell-based, Staphylococcus aureus, Pseudomonas aeruginosa; details: 125 mg L^−1, 2 h
# Protocol: S. aureus and P. aeruginosa suspensions at ˜3×10^8 CFU mL^−1 (100 μL) were separately incubated with an equal volume of broth containing final concentrations of 10% (by volume) of HPLC water or 125 mg L^−1 of IK8-all D in a 96 well-plate for 2 h. Eight replicates of each condition was pooled into a microfuge tube, pelleted down at 4000 rpm for 5 min, and rinsed twice with PBS. The samples were then fixed with 4% formaldehyde at room temperature for 20 min, followed by rinsing with deionized water. Dehydration of the cells was performed using a series of graded ethanol solutions (35, 50, 75, 90, 95 and 100%). The samples were mounted on a copper tape, allowed to air-dry and sputter coated with platinum for imaging using a FE-SEM setup (JEOL JSM-7400F, Japan).
# P. aeruginosa [19] = assay: MBC against clinical isolates; assay type: cell-based; details: clinical isolate
# E. coli [20] = details: 18 h; remark: listed apart in the source
# [21] = tested on: Vancomycin-resistant Enterococci; details: clinical isolate
# P. aeruginosa [22] = details: 18 h; remark: listed apart in the source
# [23] = tested on: clinically isolated Mycobacterium tuberculosis
# S. aureus [24] = details: 18 h; remark: listed apart in the source
# S. epidermidis [25] = details: 18 h; remark: listed apart in the source
# [26] = tested on: clinically isolated drug resistant microorganisms; assay: MBC comparison over clinical isolates; assay type: cell-based; details: antibacterial activities
smiles,measurement,setting,value
CC[C@H](C)[C@H](N)C(=O)N[C@@H](CCCNC(=N)N)C(=O)N[C@H](C(=O)N[C@@H](CCCCN)C(=O)N[C@H](C(=O)N[C@@H](CCCNC(=N)N)C(=O)N[C@H](C(=O)N[C@@H](CCCCN)C(=O)N[C@H](C(=O)N[C@@H](CCCNC(=N)N)C(=O)N[C@H](C(=O)N[C@@H](CCCCN)C(N)=O)[C@@H](C)CC)[C@@H](C)CC)[C@@H](C)CC)[C@@H](C)CC)[C@@H](C)CC [(IRIK)3-NH2] (H-IRIKIRIKIRIK-NH2; N-terminus assumed),MIC S. aureus,S. aureus [1],62.5 µg/mL
same,"nitrite concentration, LPS-stimulated NO production",[2],reduced to the control level
same,"viability at 24 h, 125 µg/mL",in vitro [3],> 80%
same,"viability at 24 h, 125 µg/mL",in vitro [4]; HDF dermal fibroblast cells,> 80%
same,MIC P. aeruginosa,P. aeruginosa [5],500 µg/mL
same,MIC C. albicans,C. albicans [6],125 µg/mL
same,MIC E. coli,E. coli [7],125 µg/mL
same,MIC S. epidermidis,S. epidermidis [8],1.0 µg/mL
same,"GM, geometric mean of MIC values for the 5 microorganisms tested",[9],162.7 µg/mL
CC(C)[C@H](N)C(=O)N[C@@H](CCCNC(=N)N)C(=O)N[C@H](C(=O)N[C@@H](CCCCN)C(=O)N[C@H](C(=O)N[C@@H](CCCNC(=N)N)C(=O)N[C@H](C(=O)N[C@@H](CCCCN)C(=O)N[C@H](C(=O)N[C@@H](CCCNC(=N)N)C(=O)N[C@H](C(=O)N[C@@H](CCCCN)C(N)=O)C(C)C)C(C)C)C(C)C)C(C)C)C(C)C [(VRVK)3-NH2] (H-VRVKVRVKVRVK-NH2; N-terminus assumed),MIC S. aureus,S. aureus [1],62.5 µg/mL
same,"viability at 24 h, 250 µg/mL",in vitro [3],> 53%
same,"viability at 24 h, 250 mg/L",in vitro [4],30%
same,"viability at 24 h, 250 µg/mL",in vitro [4]; HDF dermal fibroblast cells,> 53%
same,MIC P. aeruginosa,P. aeruginosa [5],62.5 µg/mL
same,MIC C. albicans,C. albicans [6],31.3 µg/mL
same,MIC E. coli,E. coli [7],15.6 µg/mL
same,MIC S. epidermidis,S. epidermidis [8],1.0 µg/mL
same,"GM, geometric mean of MIC values for the 5 microorganisms tested",[9],34.6 µg/mL
"CC[C@@H](C)[C@@H](N)C(=O)N[C@H](CCCNC(=N)N)C(=O)N[C@@H](C(=O)N[C@H](CCCCN)C(=O)N[C@@H](C(=O)N[C@H](CCCNC(=N)N)C(=O)N[C@@H](C(=O)N[C@H](CCCCN)C(N)=O)[C@H](C)CC)[C@H](C)CC)[C@H](C)CC [IK8-all D, irikirik-NH2] (H-[dI][dR][dI][dK][dI][dR][dI][dK]-NH2; N-terminus assumed)",MICn/MIC0,E. coli [10],1
same,log reductions in intracellular S. aureus colony counts compared to the control,[11],1.2-1.5 log
same,MBC A. baumanni,A. baumanni,31.3 µg/mL
same,"HC10, haemolysis concentration 10%: lowest peptide concentration that induces ≧10% haemolysis",rabbit red blood cells,1750 mg/L
same,"MICn/MIC0, fold increase in MIC",S. aureus [12],1
same,killing efficiencies,[13],> 99.9%
same,log reductions in colony counts,[13]; 2,more than 3 log
same,"GM, geometric mean of MIC values for the 5 microorganisms tested",[14],4.3 µg/mL
same,fold reduction in MIC values compared with the L-enantiomer,[14]; against the various bacteria,2-16 fold
same,viability at 48 h,in vitro [15],> 80%
same,antimicrobial activity after protease treatment,trypsin and proteinase K,retained its antibacterial activities
same,"structural integrity after protease treatment, MALDI-TOF MS",trypsin and proteinase K,remained intact
same,MIC C. albicans,C. albicans [16],3.9 µg/mL
same,MBC C. neoformans,C. neoformans,7.8 µg/mL
same,MBC Methicillin-resistant S. aureus,[17],3.9 µg/mL
same,surface morphology under FE-SEM,[18],significant membrane damage and corrugation
same,MBC P. aeruginosa,P. aeruginosa [19],15.6 µg/mL
same,MIC E. coli,E. coli [20],3.9 µg/mL
same,MBC Vancomycin-resistant Enterococci,[21],3.9 µg/mL
same,MIC P aeruginosa,P. aeruginosa [22],7.8 µg/mL
same,MIC M. tuberculosis,[23]; strain number 1140,15.6 µg/mL
same,MIC M. tuberculosis,[23]; strain number 1146,15.6 µg/mL
same,MIC S. aureus,S. aureus [24],3.9 µg/mL
same,MIC S. epidermidis,S. epidermidis [25],2.0 µg/mL
same,folds reduction in MBCs compared with the L-enantiomer,[26],4-8 folds
